The nature of series [1]: Toxicity test, LD50 mice p.os. As to conditions: mouse, in vivo, po. An excerpt:
|Compound LD50 mice p. os in mg/kg

Series [2] is described as follows: Anti-pentylenetetrazol. In kind it is in vivo. As to conditions: oral, 30 minutes before pentylenetetrazol treatment 130 mg/kg s.c. How it is done: (§1) The pharmacologic activity of the compounds of the invention has been assessed by the following classical tests which are known to indicate useful therapeutic activities:
Anti-pentylenetetrazol (L. O. Randall, W. Schallek, G. A. Heise, E. F. Keith and R. Bagdon: J. Pharmacol. Exp. Therapeutics, 129, 163-171, 1960).
(§2) Main neuropharmacological effects of substituted benzodiazepine in oral
^a 30 minutes before pentylenetetrazol treatment 130 mg/kg s.c.

Series [3] is described as follows: Anti-ECS. In kind it is in vivo. As to conditions: oral, 60 minutes before ECS. How it is done: as §1
ECS (E. A. Swinyard, W. C. Brown and L. S. Goodman: J. Pharmacol. Exp. Therapeutics, 106, 319-330, 1952.)
as §2
^b 60 minutes before ECS.

Series [4] can be described thus: Analgesic. It is filed as in vivo. The note with it: oral, prolongs reaction time 50 percent of control group in 50 percent of treated animals, read-out: Analgesic DE50. How it is done: as §1
Analgesic (N. B. Eddy and D. Leimbach: J. Pharmacol. Exp. Therapeutics, 107, 385-393, 1953.)
as §2
^c at 240 minutes after drug treatment.
^c' at 60 minutes after drug treatment.
^(x) Prolongs reaction time 50 percent of control group in 50 percent

Series [5] is described as follows: Miorelaxation. In kind it is in vivo. The note with it: oral, reduces "falling time" 50 percent of control group in 50 percent of treated animals, read-out: Miorelaxation DE50. How it is done: as §1
Miorelaxation (N. W. Dunham and T. S. Miya: J. Am. Pharm. Ass., 46, No. 3, 208-209, 1957.)
as §2
^d at 120 minutes after drug treatment.
^d' at 60 minutes after drug treatment.
^(xx) Reduces "falling time" 50 percent of control group in 50 percen

A short description of series [6]: Spontaneous Motor Activity. In kind it is in vivo. As to conditions: 0.5 h; oral; 30 minutes period starting 30 minutes after drug treatment; reduces movements counts 50 percent of control activity in group of 4 animals; read-out: Spontaneous Motor Activity DE50. How it is done:
as §1
Spontaneous Motor Activity (W. J. Kinnard and C. J. Carr: J. Pharmacol. Exp. Therapeutics, 121, 354-361, 1957.)
as §2
^e measured in 30 minutes period starting 30 minutes after drug
^(xxx) Reduces movements counts 50 percent of control activity in
group of 4 animals: 5 groups/dose.

Where [7] appears, read: convulsions, read-out: Anti-pentylenetetrazol, Convulsions DE50.
The mark [8] stands for this setting: death, read-out: Anti-pentylenetetrazol, Death DE50.
Setting [9] is: convulsions, read-out: Anti-ECS, Convulsions DE50.
Where [10] appears, read: death, read-out: Anti-ECS, Death DE50.
Where [11] appears, read: 4 h, at 240 minutes after drug treatment.
The mark [12] stands for this setting: 2 h, at 120 minutes after drug treatment.

The structures appear in SMILES notation.

Consider seven compounds from patent US4487771A, “C-3 Substituted 1,4-benzodiazepines and pharmaceutical utilization thereof” (Medosan Industrie Biochimiche Riunite, S.p.A., priority 1983, dated 1984).

A word on the LD50: it is the dose at which mortality reaches 50%. `CC(=O)NCCCC(=O)OC1N=C(c2ccccc2)c2cc(Cl)ccc2N(C)C1=O` (centres unmarked) [Example 4, 3-(4-acetamido)butyryloxy-7-chloro-1,3-dihydro-1-methyl-5-phenyl-2H-1,4-benzodiazepine-2-one] displayed an LD50 in series [1] of 1000 mg/kg. For the same compound, the ED50 in series [2] (setting [7]) worked out at 5 mg/kg; in series [2] (setting [8]) it was 2.2 mg/kg; in series [3] (setting [9]) it was 4 mg/kg; in series [3] (setting [10]), 0.7 mg/kg; in series [4] (setting [11]), 30 mg/kg; in series [5] (setting [12]), 19 mg/kg. Moreover, the ED50 in series [6] came out at 1.9 mg/kg.
Regarding `CC(=O)NCCCC(=O)OC1N=C(c2ccccc2Cl)c2cc(Cl)ccc2N(C)C1=O` (centres unmarked) [Example 6, 3-(4-acetamido)-butyryloxy-7-chloro-5-o-chlorophenyl-1,3-dihydro-1-methyl-2H-1,4-benzodiazepine-2-one], the LD50 in series [1] is above 1000 mg/kg. Also, the ED50 in series [2] (setting [7]) was found to be 0.2 mg/kg; in series [2] (setting [8]), 0.16 mg/kg; in series [3] (setting [9]) it was 5.5 mg/kg; in series [3] (setting [10]) it was 0.032 mg/kg; in series [4] (1 h, at 60 minutes after drug treatment (c')), 19 mg/kg; in series [5] (1 h, at 60 minutes after drug treatment (d')) it was 2 mg/kg. Besides, the ED50 in series [6] turned out to be 1.9 mg/kg.
The compound `CC(=O)NCC(=O)OC1N=C(c2ccccc2)c2cc(Cl)ccc2NC1=O` (centres unmarked) [Example 5, 3-acetamido-acetoxy-7-chloro-1,3-dihydro-5-phenyl-2H-1,4-benzodiazepine-2-one] displayed an LD50 in series [1] of 1400 mg/kg. For the same compound, the ED50 in series [2] (setting [7]) is 6 mg/kg; in series [2] (setting [8]) it was 1.5 mg/kg; in series [3] (setting [9]), 12 mg/kg; in series [3] (setting [10]), 0.32 mg/kg; in series [4] (setting [11]) it was 34 mg/kg; in series [5] (setting [12]), 15 mg/kg. Moreover, the ED50 in series [6] stood at 0.7 mg/kg.
In turn, `CC(=O)NCCCC(=O)OC1N=C(c2ccccc2)c2cc(Cl)ccc2NC1=O` (centres unmarked) [Example 1, 3-(4-acetamido)butyryl-oxy-7-chloro-1,3-dihydro-5-phenyl-2H-1,4-benzodiazepine-2-one] showed an LD50 in series [1] of 1500 mg/kg. Moreover, the ED50 in series [2] (setting [7]) amounted to 7 mg/kg; in series [2] (setting [8]) it was 4 mg/kg; in series [3] (setting [9]) it was 38 mg/kg; in series [3] (setting [10]) it was 0.22 mg/kg; in series [4] (setting [11]), 26 mg/kg; in series [5] (setting [12]) it was 6.5 mg/kg. In addition, the ED50 in series [6] came out at 9 mg/kg.
In the case of `CC(=O)NCCCC(=O)OC1N=C(c2ccccc2Cl)c2cc(Cl)ccc2NC1=O` (centres unmarked) [Example 3, 3-(4-acetamido)butyryloxy-7-chloro-5-o-chlorophenyl-1,3-dihydro-2H-1,4-benzodiazepine-2-one], the LD50 in series [1] is 1200 mg/kg. Further, the ED50 turned out to be 2.6 mg/kg in series [2] (setting [7]); 0.15 mg/kg in series [2] (setting [8]); 4.6 mg/kg in series [3] (setting [9]); 0.02 mg/kg in series [3] (setting [10]); 42 mg/kg in series [4] (setting [11]); 4.2 mg/kg in series [5] (setting [12]). Moreover, the ED50 in series [6] was 0.18 mg/kg.
For `CC(C)(C)OC(=O)NCCCC(=O)OC1N=C(c2ccccc2)c2cc(Cl)ccc2NC1=O` (centres unmarked) [Example 2, 7-chloro-1,3-dihydro-5-phenyl-3-(4-tertiary-butoxycarbonylamino)butyryloxy-2H-1,4-benzodiazepine-2-one], the median lethal dose (LD50) in series [1] was above 1500 mg/kg. Moreover, the ED50 in series [2] (setting [7]) was determined as 14 mg/kg; in series [2] (setting [8]) it was 7 mg/kg; in series [3] (setting [9]), 60 mg/kg; in series [3] (setting [10]), 1 mg/kg; in series [4] (setting [11]) it was 42 mg/kg; in series [5] (setting [12]), 16 mg/kg. The ED50 in series [6] was 2.6 mg/kg.
`O=C1Nc2ccc(Cl)cc2C(c2ccccc2)=NC1O` (centres unmarked) [Oxazepam, reference compound] returned an LD50 in series [1] above 1500 mg/kg. The ED50 in series [2] (setting [7]) turned out to be 20 mg/kg; in series [2] (setting [8]), 5.5 mg/kg; in series [3] (setting [9]), 40 mg/kg; in series [3] (setting [10]), 4 mg/kg; in series [4] (setting [11]), 28 mg/kg; in series [5] (setting [12]), 25 mg/kg. The ED50 in series [6] is 4.2 mg/kg.
